This passage reports IC50 results from patent US11254668B2, “Pyrazolo[1,5-A]pyrazin-4-yl and related derivatives” (Pfizer Inc., priority 2017, dated 2022).

The structures appear in SMILES notation.

Type in all cases: biochemical
What all share (settings): JAK Caliper enzyme assay

Test [1] concerns the target JAK1 (Homo sapiens (Human), UniProt P23458). Nature of the test: JAK Caliper Enzyme Assay at 1 mM ATP, JAK1. An outline of the steps:
(§1)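 IC50 (nM) derived from percent conversion of fluorescently labelled peptide, measured by Caliper LabChip mobility-shift separation after EDTA stop. Each JAK family kinase domain (human, recombinant) run at 1 mM ATP and room temperature, conditions set to 20-30% product; DMSO wells define uninhibited baseline.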

For test [2], the target named is TYK2 (Homo sapiens (Human), UniProt P29597). The test is described as follows: JAK Caliper Enzyme Assay at 1 mM ATP, TYK2. In a few lines: (§2)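 Mobility-shift microfluidic read-out: substrate and phosphopeptide peaks separated, % conversion = product/(product+substrate). Reaction used recombinant human kinase domain, synthetic peptide, 1 mM ATP, RT incubation to 20–30% turnover, quenched with EDTA. Percent effect versus DMSO and positive controls, plotted against concentration.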
Sequence of TYK2 (P29597 897-1176): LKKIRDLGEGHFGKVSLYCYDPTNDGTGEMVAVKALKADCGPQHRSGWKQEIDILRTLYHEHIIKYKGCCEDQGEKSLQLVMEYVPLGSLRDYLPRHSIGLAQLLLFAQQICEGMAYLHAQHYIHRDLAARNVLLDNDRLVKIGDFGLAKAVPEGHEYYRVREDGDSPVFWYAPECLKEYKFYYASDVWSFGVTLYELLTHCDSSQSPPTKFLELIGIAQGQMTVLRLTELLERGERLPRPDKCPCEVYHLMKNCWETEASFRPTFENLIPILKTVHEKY

For test [3], the target named is JAK2 (Homo sapiens (Human), UniProt O60674). Nature of the test: JAK Caliper Enzyme Assay at 1 mM ATP, JAK2. In a few lines:
as §2

Test [4] deals with JAK3 (Homo sapiens (Human), UniProt P52333). The test is described as follows: JAK Caliper Enzyme Assay at 1 mM ATP, JAK3. An outline of the steps:
as §1

Sequence of JAK1 (P23458 875-1153): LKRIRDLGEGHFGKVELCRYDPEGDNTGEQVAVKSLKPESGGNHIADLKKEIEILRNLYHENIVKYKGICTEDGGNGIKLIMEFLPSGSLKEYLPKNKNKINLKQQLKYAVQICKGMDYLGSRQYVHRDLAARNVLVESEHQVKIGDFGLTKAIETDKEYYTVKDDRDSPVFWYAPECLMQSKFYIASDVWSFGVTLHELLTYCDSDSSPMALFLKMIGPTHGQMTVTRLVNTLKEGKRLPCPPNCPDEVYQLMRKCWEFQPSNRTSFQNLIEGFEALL
Sequence of JAK2 (O60674 849-1124): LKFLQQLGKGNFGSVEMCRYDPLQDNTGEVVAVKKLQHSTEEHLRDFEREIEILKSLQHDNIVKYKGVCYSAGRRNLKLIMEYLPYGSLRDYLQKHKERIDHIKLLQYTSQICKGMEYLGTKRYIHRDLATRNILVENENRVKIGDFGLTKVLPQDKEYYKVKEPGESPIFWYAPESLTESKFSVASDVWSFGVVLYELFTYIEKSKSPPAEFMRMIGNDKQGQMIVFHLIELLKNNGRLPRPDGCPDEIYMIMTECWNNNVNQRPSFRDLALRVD
Sequence of JAK3 (P52333 822-1111): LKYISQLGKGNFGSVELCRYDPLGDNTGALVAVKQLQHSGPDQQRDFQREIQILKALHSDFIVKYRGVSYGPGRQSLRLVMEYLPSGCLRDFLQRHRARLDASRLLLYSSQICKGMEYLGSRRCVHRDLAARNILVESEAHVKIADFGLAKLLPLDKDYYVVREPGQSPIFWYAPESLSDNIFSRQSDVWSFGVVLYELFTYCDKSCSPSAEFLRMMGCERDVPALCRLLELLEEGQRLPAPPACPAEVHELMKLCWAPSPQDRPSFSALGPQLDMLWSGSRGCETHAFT

On to `N#CC[C@]1(n2ncc(-c3cc(-c4cnc5ncccn45)cc4ncccc34)n2)C[C@@H](C#N)C1` [Example 417, cis-3-(cyanomethyl)-3-{4-[7-(imidazo[1,2-a]pyrimidin-3-yl)quinolin-5-yl]-2H-1,2,3-triazol-2-yl}cyclobutanecarbonitrile], for which the IC50 in test [1] is 7470 nM; in test [2], 110 nM; in test [3], 291 nM; in test [4], over 10000 nM.
`N#CC[C@]1(n2ncc(-c3cc(-c4cnc5ncccn45)cc4ncccc34)n2)C[C@H](C#N)C1` [Example 418, trans-3-(cyanomethyl)-3-{4-[7-(imidazo[1,2-a]pyrimidin-3-yl)quinolin-5-yl]-2H-1,2,3-triazol-2-yl}cyclobutanecarbonitrile]: the IC50 in test [1] is over 10000 nM; in test [2] it was 1540 nM; in test [3], 8070 nM; in test [4], over 10000 nM.
Turning to `N#CC[C@]1(n2ncc(-c3cc(-c4cnn5cccnc45)cc4ncccc34)n2)C[C@@H](C#N)C1` [Example 419, cis-3-(cyanomethyl)-3-{4-[7-(pyrazolo[1,5-a]pyrimidin-3-yl)quinolin-5-yl]-2H-1,2,3-triazol-2-yl}cyclobutanecarbonitrile], the IC50 in test [1] is 739 nM; in test [2], 105 nM; in test [3], 200 nM; in test [4], over 10000 nM.
In the case of `N#CC[C@]1(n2ncc(-c3cc(-c4cnn5cccnc45)cc4ncccc34)n2)C[C@H](C#N)C1` [Example 420, trans-3-(cyanomethyl)-3-{4-[7-(pyrazolo[1,5-a]pyrimidin-3-yl)quinolin-5-yl]-2H-1,2,3-triazol-2-yl}cyclobutanecarbonitrile], the half-inhibitory concentration (IC50) in test [1] is over 10000 nM; in test [2], 909 nM; in test [3] it was 1700 nM; in test [4] it was over 10000 nM.
As for `N#CCC1(n2ncc(-c3cc(-c4cnc5cccnn45)cc4ncccc34)n2)CC(C#N)C1` (stereo not drawn) [Example 421, cis-3-(cyanomethyl)-3-{4-[7-(imidazo[1,2-b]pyridazin-3-yl)quinolin-5-yl]-2H-1,2,3-triazol-2-yl}cyclobutanecarbonitrile], the half-maximal inhibitory concentration (IC50) in test [1] is 1560 nM; in test [2], 113 nM; in test [3] it was 353 nM; in test [4], over 10000 nM.
With `N#CC[C@]1(n2ncc(-c3cc(-c4cnc5c(N)nccn45)cc4ncccc34)n2)C[C@@H](C#N)C1` [Example 422, cis-3-{4-[7-(8-aminoimidazo[1,2-a]pyrazin-3-yl)quinolin-5-yl]-2H-1,2,3-triazol-2-yl}-3-(cyanomethyl)cyclobutanecarbonitrile], the IC50 in test [1] is 5380 nM; in test [2] it was 292 nM; in test [3], 1460 nM; in test [4] it was over 10000 nM.
As to `N#CC[C@]1(n2ncc(-c3cc(-c4cn5ccnc5c(N)n4)cc4ncccc34)n2)C[C@@H](C#N)C1` [Example 423, cis-3-{4-[7-(8-aminoimidazo[1,2-a]pyrazin-6-yl)quinolin-5-yl]-2H-1,2,3-triazol-2-yl}-3-(cyanomethyl)cyclobutanecarbonitrile], the IC50 in test [1] was 2250 nM; in test [2], 76 nM; in test [3], 183 nM; in test [4] it was over 10000 nM.
For `Cc1nc2ccc(-c3cc(-c4cnn([C@]5(CC#N)C[C@H](C#N)C5)n4)c4cccnc4c3)nc2[nH]1` [Example 424, cis-3-(cyanomethyl)-3-{4-[7-(2-methyl-3H-imidazo[4,5-b]pyridin-5-yl)quinolin-5-yl]-2H-1,2,3-triazol-2-yl}cyclobutanecarbonitrile] the same measures were 728 nM, 23 nM, 82 nM and 9360 nM.

As a reminder, the IC50 is the midpoint of a concentration-inhibition curve.
